Assay results: PubChem BioAssay (NCI)
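GI50 is the concentration that inhibits growth by half. TGI: concentration producing complete growth inhibition.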

Legend:
Assay in all cases: NCI-60 cell line screen, 384-well format
UACC-257 melanoma = system: UACC-257 melanoma
UACC-62 melanoma = system: UACC-62 melanoma
HCT-116 colon = system: HCT-116 colon
BT-549 breast = system: BT-549 breast
HOP-92 NSCLC = system: HOP-92 NSCLC
NCI-H322M lung = system: NCI-H322M lung
HS 578T breast = system: HS 578T breast
PC-3 prostate = system: PC-3 prostate
SW-620 colon = system: SW-620 colon
LOX IMVI melanoma = system: LOX IMVI melanoma
RPMI-8226 leukemia = system: RPMI-8226 leukemia
A549 NSCLC = system: A549 NSCLC
HL-60(TB) leukemia = system: HL-60(TB) leukemia
MDA-MB-435 melanoma = system: MDA-MB-435 melanoma
DU-145 prostate = system: DU-145 prostate
RXF 393 renal = system: RXF 393 renal
OVCAR-3 ovarian = system: OVCAR-3 ovarian
IGROV1 ovarian = system: IGROV1 ovarian
CCRF-CEM leukemia = system: CCRF-CEM leukemia
OVCAR-8 ovarian = system: OVCAR-8 ovarian
CAKI-1 renal = system: CAKI-1 renal
UO-31 renal = system: UO-31 renal
HT29 colon = system: HT29 colon
KM12 colon = system: KM12 colon
SN12C renal = system: SN12C renal
SK-OV-3 ovarian = system: SK-OV-3 ovarian
U251 glioblastoma = system: U251 glioblastoma
HCT-15 colon = system: HCT-15 colon
NCI/ADR-RES ovarian = system: NCI/ADR-RES ovarian
NCI-H522 lung = system: NCI-H522 lung
OVCAR-4 ovarian = system: OVCAR-4 ovarian
NCI-H226 lung = system: NCI-H226 lung
SF-295 CNS = system: SF-295 CNS
M14 melanoma = system: M14 melanoma
A498 renal = system: A498 renal
SF-268 CNS = system: SF-268 CNS
MALME-3M melanoma = system: MALME-3M melanoma
OVCAR-5 ovarian = system: OVCAR-5 ovarian
SNB-75 CNS = system: SNB-75 CNS
SF-539 CNS = system: SF-539 CNS
SNB-19 CNS = system: SNB-19 CNS
786-0 renal = system: 786-0 renal
ACHN renal = system: ACHN renal
NCI-H23 lung = system: NCI-H23 lung
HCC-2998 colon = system: HCC-2998 colon
EKVX NSCLC = system: EKVX NSCLC
COLO 205 colon = system: COLO 205 colon
HOP-62 NSCLC = system: HOP-62 NSCLC
SK-MEL-5 melanoma = system: SK-MEL-5 melanoma
TK-10 renal = system: TK-10 renal
MOLT-4 leukemia = system: MOLT-4 leukemia
MDA-MB-468 breast = system: MDA-MB-468 breast
NCI-H460 NSCLC = system: NCI-H460 NSCLC
T-47D breast = system: T-47D breast
SK-MEL-28 melanoma = system: SK-MEL-28 melanoma

## Cc1cc(Cl)cc(OCCn2cc(F)cn2)c1-c1nc(N)nc2c1CN(C(=O)NCC(C)(F)F)C2
UACC-257 melanoma
  GI50: 394 nM
  TGI: > 100000 nM
UACC-62 melanoma
  GI50: 54.3 nM
  TGI: 300 nM
HCT-116 colon
  GI50: 68.5 nM
  TGI: 18200 nM
BT-549 breast
  GI50: 36.3 nM
  TGI: 769 nM
HOP-92 NSCLC
  GI50: 73.3 nM
  TGI: 279 nM
NCI-H322M lung
  GI50: 136 nM
  TGI: > 100000 nM
HS 578T breast
  GI50: 46.8 nM
  TGI: 302 nM
PC-3 prostate
  GI50: 86.7 nM
  TGI: 533 nM
SW-620 colon
  GI50: 38.5 nM
  TGI: 268 nM
LOX IMVI melanoma
  GI50: 35.7 nM
  TGI: 129 nM
RPMI-8226 leukemia
  GI50: 57 nM
  TGI: 305 nM
A549 NSCLC
  GI50: 45.6 nM
  TGI: > 100000 nM
HL-60(TB) leukemia
  GI50: 32.5 nM
  TGI: 71.2 nM
MDA-MB-435 melanoma
  GI50: 83.1 nM
  TGI: > 100000 nM
DU-145 prostate
  GI50: 40.5 nM
  TGI: 1750 nM
RXF 393 renal
  GI50: 41.3 nM
  TGI: 842 nM
OVCAR-3 ovarian
  GI50: 41.6 nM
  TGI: 939 nM
IGROV1 ovarian
  GI50: 40.2 nM
  TGI: 443 nM
CCRF-CEM leukemia
  GI50: 29.1 nM
  TGI: 94.1 nM
OVCAR-8 ovarian
  GI50: 43.1 nM
  TGI: 181 nM
CAKI-1 renal
  GI50: 163 nM
  TGI: > 100000 nM
UO-31 renal
  GI50: 394 nM
  TGI: 56100 nM
HT29 colon
  GI50: 35 nM
  TGI: 16800 nM
KM12 colon
  GI50: 37.3 nM
  TGI: 802 nM
SN12C renal
  GI50: 51.6 nM
  TGI: 316 nM
SK-OV-3 ovarian
  GI50: 121 nM
  TGI: > 100000 nM
U251 glioblastoma
  GI50: 37.9 nM
  TGI: 130 nM
HCT-15 colon
  GI50: 339 nM
  TGI: > 100000 nM
NCI/ADR-RES ovarian
  GI50: 5110 nM
  TGI: 63000 nM
NCI-H522 lung
  GI50: 23.9 nM
  TGI: 45.7 nM
OVCAR-4 ovarian
  GI50: > 100000 nM
  TGI: > 100000 nM
NCI-H226 lung
  GI50: 174 nM
  TGI: 842 nM
SF-295 CNS
  GI50: 58.9 nM
  TGI: 230 nM
M14 melanoma
  GI50: 40.8 nM
  TGI: > 100000 nM
A498 renal
  GI50: 149 nM
  TGI: > 100000 nM
SF-268 CNS
  GI50: 24 nM
  TGI: 63.2 nM
MALME-3M melanoma
  GI50: 30.7 nM
  TGI: 85.2 nM
OVCAR-5 ovarian
  GI50: 115 nM
  TGI: > 100000 nM
SNB-75 CNS
  GI50: 152 nM
  TGI: 664 nM
SF-539 CNS
  GI50: 26.1 nM
  TGI: 62.8 nM
SNB-19 CNS
  GI50: 122 nM
  TGI: 24400 nM
786-0 renal
  GI50: 59.3 nM
  TGI: 5810 nM
ACHN renal
  GI50: 389 nM
  TGI: > 100000 nM
NCI-H23 lung
  GI50: 32.1 nM
  TGI: 95.4 nM
HCC-2998 colon
  GI50: 21.5 nM
  TGI: 71.4 nM
EKVX NSCLC
  GI50: 90.2 nM
  TGI: 31100 nM
COLO 205 colon
  GI50: 30.6 nM
  TGI: 136 nM
HOP-62 NSCLC
  GI50: 65.1 nM
  TGI: > 100000 nM
SK-MEL-5 melanoma
  GI50: 47.2 nM
  TGI: > 100000 nM
TK-10 renal
  GI50: 275 nM
  TGI: 12700 nM
MOLT-4 leukemia
  GI50: 17.5 nM
  TGI: 34.7 nM
MDA-MB-468 breast
  GI50: 34 nM
  TGI: 76 nM
NCI-H460 NSCLC
  GI50: 34.2 nM
  TGI: 106 nM
T-47D breast
  GI50: 43.8 nM
  TGI: 307 nM
SK-MEL-28 melanoma
  GI50: 71.5 nM
  TGI: > 100000 nM
